Data set [1] deals with T1, FGF14:Nav1.6 C-tail complex (Homo sapiens, UniProt Q92915+Q9UQD0).
T1 construct: polymerase chain reaction (PCR) amplification of the FGF14 open reading frame (nt 1–855); C-terminal fragment of Nav1.6 (amino acids 1763–1976) fused with CD4ΔC-tail (amino acids 1–395); expressed in transfected cells
The experiment in a line: Split-luciferase complementation assay (LCA) in Clone V double stable HEK293 cells. Type of data set: cell-based. Particulars: for Z-score (LCA primary screening): 30 µM, average of primary screening (n = 2), vs on-plate 0.3% DMSO; for Split Luciferase Assay % Lum Set 1 / Split Luciferase Assay Z-score Set 1: biological replicate Set 1; for Split Luciferase Assay % Lum Set 1 / Split Luciferase Assay %Lum Set 2: normalized to on-plate 0.3% DMSO controls (n=16 per plate); for Split Luciferase Assay %Lum Set 2 / Split Luciferase Assay Z-score Set 2: biological replicate Set 2; for Split Luciferase Assay Z-score Set 1 / Split Luciferase Assay Z-score Set 2: normalized to on-plate 0.3% DMSO controls; for Split Luciferase Assay %Lum Avg: average of Set 1 and Set 2, normalized to 0.3% DMSO controls.

The target of data set [2] is full-length P. pyralis luciferase (Photinus pyralis, UniProt P08659, K549A/L550V/N119G/N50D/S548I). The data set is classed as cell-based. The settings on record: CC_NCI screening, normalized to on-plate 0.3% DMSO controls; for Luciferase Assay % Lum: full-length luciferase counter-screen luminescence; for Luciferase Assay Z-score: full-length luciferase counter-screen. A general note: A counterscreen serves to expose hits that act by an unwanted route or on another target.

For data set [3], the system named is Clone V cells.
Where [4] appears, read: CC_NCI screening, LCA luminescence.

Results on eleven compounds are retold here after paper PMC6858373 (Scientific Reports, 2019).

pEC50: −log10 of the molar value. Read-outs that look alike come from different tables or passages of the source.

Sequence of full-length P. pyralis luciferase (P08659 whole entry N50D/N119G/S548I/K549A/L550V, looked up): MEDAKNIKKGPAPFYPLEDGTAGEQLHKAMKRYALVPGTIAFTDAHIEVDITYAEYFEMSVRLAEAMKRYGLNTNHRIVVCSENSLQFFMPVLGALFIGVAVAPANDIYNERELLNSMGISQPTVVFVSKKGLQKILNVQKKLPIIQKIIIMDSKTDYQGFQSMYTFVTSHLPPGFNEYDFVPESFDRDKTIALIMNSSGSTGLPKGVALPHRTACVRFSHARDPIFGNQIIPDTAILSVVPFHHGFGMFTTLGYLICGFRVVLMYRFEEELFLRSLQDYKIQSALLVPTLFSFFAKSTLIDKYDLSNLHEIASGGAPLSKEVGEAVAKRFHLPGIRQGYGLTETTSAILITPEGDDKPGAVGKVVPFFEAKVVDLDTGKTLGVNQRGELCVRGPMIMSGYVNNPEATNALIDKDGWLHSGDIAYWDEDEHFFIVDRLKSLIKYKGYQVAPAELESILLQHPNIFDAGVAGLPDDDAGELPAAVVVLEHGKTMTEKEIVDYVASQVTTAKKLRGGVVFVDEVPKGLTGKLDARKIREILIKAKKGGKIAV
T1 sequence (Q92915 1-252 isoform Q92915-2): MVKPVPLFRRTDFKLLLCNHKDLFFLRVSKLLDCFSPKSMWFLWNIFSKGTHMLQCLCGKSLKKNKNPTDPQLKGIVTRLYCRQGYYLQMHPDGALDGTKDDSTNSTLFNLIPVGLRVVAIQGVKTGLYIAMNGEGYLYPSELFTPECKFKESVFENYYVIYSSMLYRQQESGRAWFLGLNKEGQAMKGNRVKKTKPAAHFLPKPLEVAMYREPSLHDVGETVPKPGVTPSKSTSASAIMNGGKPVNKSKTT
T1 sequence (Q9UQD0 1763-1976 limits assumed): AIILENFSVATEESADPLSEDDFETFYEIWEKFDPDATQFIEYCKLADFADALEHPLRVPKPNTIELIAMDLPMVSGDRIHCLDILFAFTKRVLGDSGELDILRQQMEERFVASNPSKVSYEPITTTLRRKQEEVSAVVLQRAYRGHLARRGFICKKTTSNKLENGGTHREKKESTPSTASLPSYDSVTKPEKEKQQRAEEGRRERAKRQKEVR

Consider `CN[C@@H]1C[C@H]2O[C@@](C)([C@@H]1OC)n1c3ccccc3c3c4c(c5c6ccccc6n2c5c31)C(=O)NC4` [Staurosporine, reference compound], for which the “Z-score (LCA primary screening)” value in data set [1] (384-well) is on record as −6.58. Further, in data set [1] (setting [4]), the “Split Luciferase Assay % Lum Set 1” value was found to be 23.16% and the “Split Luciferase Assay %Lum Set 2” value amounted to 14.56%. Further, in data set [1] (CC_NCI screening, LCA), the “Split Luciferase Assay Z-score Set 1” value was -6.21 and the “Split Luciferase Assay Z-score Set 2” value is -6.95. Also, the “Split Luciferase Assay %Lum Avg” value in data set [1] (CC_NCI screening) is 18.86%. In addition, in data set [1] (antagonists, Clone V cells, 384-well, normalized to DMSO), the “IMin (% Luminescence)” value is 18.86 % Luminescence. In data set [2], the “Luciferase Assay % Lum” value was 101.58% and the “Luciferase Assay Z-score” value is 0.20. Besides, in data set [3] (human), the “Toxicity Assay % Fluor” value worked out at 82.83% and the “Toxicity Assay Z-score” value was -2.40.

For `CO[C@H]1C[C@@H]2CC[C@@H](C)[C@@](O)(O2)C(=O)C(=O)N2CCCC[C@H]2C(=O)O[C@H]([C@H](C)C[C@@H]2CC[C@@H](OC(=O)C(C)(CO)CO)[C@H](OC)C2)CC(=O)[C@H](C)/C=C(\C)[C@@H](O)[C@@H](OC)C(=O)[C@H](C)C[C@H](C)/C=C/C=C/C=C/1C` [TEMSIROLIMUS], in data set [1] (setting [4]), the “Split Luciferase Assay % Lum Set 1” value turned out to be 86.21% and the “Split Luciferase Assay %Lum Set 2” value was found to be 83.22%. In addition, in data set [1] (CC_NCI screening, LCA), the “Split Luciferase Assay Z-score Set 1” value was -1.11 and the “Split Luciferase Assay Z-score Set 2” value is given as -1.36. The “Split Luciferase Assay %Lum Avg” value in data set [1] (CC_NCI screening) was determined as 84.72%. Moreover, in data set [2], the “Luciferase Assay % Lum” value came to 65.73% and the “Luciferase Assay Z-score” value is listed as -4.39. Besides, in data set [3] (human, 16 h, 30 µM), the “Toxicity Assay % Fluor” value is reported as 87.05% and the “Toxicity Assay Z-score” value is -1.81.

Regarding `Cc1cc(C(C)Nc2ccccc2)c2nc(N3CCOCC3)cc(=O)n2c1` (stereo not shown) [TGX 221], in data set [1] (CC_NCI screening), the “Split Luciferase Assay Z-score Set 1” value is reported as 0.82, the “Split Luciferase Assay % Lum Set 1” value worked out at 110.12%, the “Split Luciferase Assay Z-score Set 2” value was 1.94 and the “Split Luciferase Assay %Lum Set 2” value worked out at 123.80%. Moreover, in data set [1], the “Split Luciferase Assay %Lum Avg” value is listed as 116.96%. For the same compound, in data set [2], the “Luciferase Assay % Lum (full-length luciferase counter-screen)” value was found to be 101.89% and the “Luciferase Assay Z-score (full-length luciferase counter-screen)” value was found to be 0.24. The “Toxicity Assay Z-score (CTB cell viability)” value in data set [3] is given as 2.19.

For `CC(/C=C/C(=O)NO)=C\[C@@H](C)C(=O)c1ccc(N(C)C)cc1` [TRICHOSTATIN A], in data set [1] (setting [4]), the “Split Luciferase Assay % Lum Set 1” value was determined as 147.09% and the “Split Luciferase Assay %Lum Set 2” value turned out to be 94.67%. In data set [1] (CC_NCI screening, LCA), the “Split Luciferase Assay Z-score Set 1” value came to 3.81 and the “Split Luciferase Assay Z-score Set 2” value is reported as -0.43. Moreover, the “Split Luciferase Assay %Lum Avg” value in data set [1] (CC_NCI screening) is 120.88%. In data set [2], the “Luciferase Assay % Lum” value was 33.58% and the “Luciferase Assay Z-score” value is reported as -8.51. Besides, in data set [3], the “Toxicity Assay % Fluor” value was found to be 97.32% and the “Toxicity Assay Z-score” value is reported as -0.37.

With `CO[C@H]1C[C@@H]2CC[C@@H](C)[C@@](O)(O2)C(=O)C(=O)N2CCCC[C@H]2C(=O)O[C@H]([C@H](C)C[C@@H]2CC[C@@H](OC(=O)C(C)(CO)CO)[C@H](OC)C2)CC(=O)[C@H](C)/C=C(\C)[C@@H](O)[C@@H](OC)C(=O)[C@H](C)C[C@H](C)/C=C/C=C/C=C/1C` [Temsirolimus], in data set [1] (setting [4]), the “Split Luciferase Assay % Lum Set 1” value was 50.33% and the “Split Luciferase Assay %Lum Set 2” value was 62.42%. Further, in data set [1] (CC_NCI screening, LCA), the “Split Luciferase Assay Z-score Set 1” value is -4.01 and the “Split Luciferase Assay Z-score Set 2” value is listed as -3.06. In addition, the “Split Luciferase Assay %Lum Avg” value in data set [1] (CC_NCI screening) worked out at 56.38%. For the same compound, in data set [2], the “Luciferase Assay % Lum” value turned out to be 68.61% and the “Luciferase Assay Z-score” value was -4.02. Also, in data set [3], the “Toxicity Assay % Fluor” value is given as 93.12% and the “Toxicity Assay Z-score” value is on record as -0.96.

Take `Nc1nc2nc[nH]c2c(=S)[nH]1` [Thioguanine]: in data set [1] (setting [4]), the “Split Luciferase Assay % Lum Set 1” value is recorded as 93.82% and the “Split Luciferase Assay %Lum Set 2” value was 110.27%. In data set [1] (CC_NCI screening, LCA), the “Split Luciferase Assay Z-score Set 1” value is reported as -0.50 and the “Split Luciferase Assay Z-score Set 2” value is recorded as 0.84. In addition, the “Split Luciferase Assay %Lum Avg” value in data set [1] (CC_NCI screening) is 102.05%. In addition, in data set [2], the “Luciferase Assay % Lum” value is given as 92.95% and the “Luciferase Assay Z-score” value was -0.90. Further, in data set [3] (human, 16 h, 30 µM), the “Toxicity Assay % Fluor” value is 96.19% and the “Toxicity Assay Z-score” value is given as -0.53.

On to `CC(=O)Nc1cccc(-n2c(=O)n(C3CC3)c(=O)c3c(Nc4ccc(I)cc4F)n(C)c(=O)c(C)c32)c1` [Trametinib], for which, in data set [1] (setting [4]), the “Split Luciferase Assay % Lum Set 1” value is on record as 101.43% and the “Split Luciferase Assay %Lum Set 2” value came to 79.06%. Moreover, in data set [1] (CC_NCI screening, LCA), the “Split Luciferase Assay Z-score Set 1” value is 0.12 and the “Split Luciferase Assay Z-score Set 2” value is given as -1.70. Besides, in data set [1] (CC_NCI screening), the “Split Luciferase Assay %Lum Avg” value is 90.25%. For the same compound, in data set [2], the “Luciferase Assay % Lum” value was found to be 95.81% and the “Luciferase Assay Z-score” value is reported as -0.54. Moreover, in data set [3] (human, 16 h, 30 µM), the “Toxicity Assay % Fluor” value turned out to be 92.79% and the “Toxicity Assay Z-score” value was -1.01.

In the case of `COc1ccc2c(c1)CC[C@@H]1[C@@H]2CC[C@]2(C)[C@@H](NCCCCCCN3C(=O)C=CC3=O)CC[C@@H]12` [U 73122], in data set [1] (setting [4]), the “Split Luciferase Assay % Lum Set 1” value came out at 128.60% and the “Split Luciferase Assay %Lum Set 2” value is listed as 129.00%. In data set [1] (CC_NCI screening, LCA), the “Split Luciferase Assay Z-score Set 1” value came to 2.31 and the “Split Luciferase Assay Z-score Set 2” value was determined as 2.36. The “Split Luciferase Assay %Lum Avg” value in data set [1] (CC_NCI screening) was determined as 128.80%. Besides, in data set [2], the “Luciferase Assay % Lum” value came out at 109.98% and the “Luciferase Assay Z-score” value was 1.28. Moreover, in data set [3], the “Toxicity Assay % Fluor” value was determined as 102.60% and the “Toxicity Assay Z-score” value turned out to be 0.36.

Turning to `COc1cc2/c(=N/c3ccc(Br)cc3F)nc[nH]c2cc1OCC1CCN(C)CC1` [VANDETANIB], in data set [1] (setting [4]), the “Split Luciferase Assay % Lum Set 1” value worked out at 85.12% and the “Split Luciferase Assay %Lum Set 2” value is 88.43%. In data set [1] (CC_NCI screening, LCA), the “Split Luciferase Assay Z-score Set 1” value was -1.20 and the “Split Luciferase Assay Z-score Set 2” value is -0.94. The “Split Luciferase Assay %Lum Avg” value in data set [1] (CC_NCI screening) amounted to 86.77%. Also, in data set [2], the “Luciferase Assay % Lum” value came to 102.19% and the “Luciferase Assay Z-score” value came to 0.28. In data set [3], the “Toxicity Assay % Fluor” value came to 85.66% and the “Toxicity Assay Z-score” value is reported as -2.01.

With `O=C(CCCCCCC(=O)Nc1ccccc1)NO` [VORINOSTAT], in data set [1] (CC_NCI screening), the “Split Luciferase Assay Z-score Set 1” value is 0.47, the “Split Luciferase Assay % Lum Set 1” value worked out at 105.78%, the “Split Luciferase Assay Z-score Set 2” value is -1.96 and the “Split Luciferase Assay %Lum Set 2” value was 75.94%. Moreover, in data set [1], the “Split Luciferase Assay %Lum Avg” value worked out at 90.86%. Also, in data set [2], the “Luciferase Assay % Lum (full-length luciferase counter-screen)” value is 84.44% and the “Luciferase Assay Z-score (full-length luciferase counter-screen)” value was -1.99. Moreover, in data set [3], the “Toxicity Assay % Fluor (CTB cell viability fluorescence)” value is recorded as 108.87% and the “Toxicity Assay Z-score (CTB cell viability)” value is 1.24.

Regarding `CS(=O)(=O)c1ccc(C(=O)Nc2ccc(Cl)c(-c3ccccn3)c2)c(Cl)c1` [Vismodegib, reference compound], the “Z-score (LCA primary screening)” value in data set [1] (384-well) came to 4.99. Moreover, in data set [1] (setting [4]), the “Split Luciferase Assay % Lum Set 1” value is 175.35% and the “Split Luciferase Assay %Lum Set 2” value was 147.72%. In addition, in data set [1] (CC_NCI screening, LCA), the “Split Luciferase Assay Z-score Set 1” value was found to be 6.09 and the “Split Luciferase Assay Z-score Set 2” value turned out to be 3.88. In addition, the “Split Luciferase Assay %Lum Avg” value in data set [1] (CC_NCI screening) is given as 161.54%. Further, the “EMax (% Luminescence)” value in data set [1] (agonists, Clone V cells, 384-well, normalized to DMSO) is on record as 161.54 % Luminescence. In addition, the pEC50 (commonly the negative decadic logarithm of the EC50, by convention in mol/L) in data set [1] (estimated, 8-point dose response 0.25-30 µM, n = 4 per concentration, library compounds, read-out: EC50) is 5.72. In addition, in data set [2], the “Luciferase Assay % Lum” value is recorded as 90.92% and the “Luciferase Assay Z-score” value is reported as -1.16. Also, in data set [3] (human, 16 h, 30 µM), the “Toxicity Assay % Fluor” value was found to be 93.24% and the “Toxicity Assay Z-score” value is listed as -0.95.
